Results on 4 molecules are retold here after patent US12396987B2, “Pharmaceutical composition with excellent storage stability” (ISHIHARA SANGYO KAISHA, LTD., priority 2018, dated 2025).

Data set [1] in a line: Pharmacokinetic evaluation of hydrogelated liquid composition, subcutaneous administration to rats. In kind it is in vivo, SD male rats. As to conditions: 5 mg/kg. The procedure: A compound 1 (3.5 mg), Kolliphor (registered trademark) P188 (200 mg), Kolliphor (registered trademark) P407 (150 mg) and purified water (1.0 mL) were mixed using a vortex mixer to obtain a liquid composition. Then, the above liquid composition was stored at 4° C. overnight to obtain a hydrogel.
To evaluate the sustained-release ability of the hydrogelated liquid composition prepared in the above Example 11(a), the drug concentration in blood was measured over time after subcutaneous administration of the hydrogel or a compound 1 bulk powder to rats. Specifically, the hydrogel or the compound 1 bulk powder, at a dose of 5 mg/kg as an amount of the compound 1, was singly subcutaneously administered to SD male rats. After subcutaneous administration, blood was collected over time from the tail vein, and the blood was transferred into a micro test tube treated with heparin, and immediately cooled in ice. After cooling in ice, the blood was immediately centrifuged at 4° C. and 10,000 g for 10 minutes.
In Table 10, pharmacokinetic parameter was expressed as mean±standard error (n=3 to 6).

The nature of data set [2]: Forced decomposition test of compound 1 (heat, acid, base, oxidation, light; HPLC-PDA). The class given is physicochemical. The procedure:
A forced decomposition test of the compound 1 was performed under stress conditions of heat, acid, base, oxidation and light. A compound 1-containing solution was stored under the conditions shown in Table 4 below, and then the concentrations of the compound 1 and the decomposition products in the solution were measured using a high performance liquid chromatography-photodiode array detector (HPLC-PDA system). An incubator was used for heating, and a light resistance tester was used for irradiation with pseudo-sunlight in a photodecomposition test. The content of the compound 1 in the compound 1-containing solution produced was measured by the HPLC-PDA system, and the value thereof was regarded as the initial content.
The content of D1 and D3 in the solution was represented by the proportion (% by area) of the peak area of each compound to the total peak area of HPLC analysis of the composition obtained after the decomposition test. Furthermore, the residual rate (% by mass) of the compound 1 was calculated by dividing the content after storage by the initial content using the absolute calibration method.
(§1) Measurement of the residual rate of the compound 1 and the content of the decomposition products in the following Examples 3 to 9 was performed under the following conditions: • Analyzer: HPLC-PDA system: CBM-20Avp system controller, SIC-20ADvp autosampler, LC-20ADvp feed pump, DGU-20A degasser, CTO-20Avp column oven, SPD-M10Avp photodiode array detector, manufactured by Shimadzu Corporation • Column: Kinetex® Biphenyl […] (50×4.6 mm), manufactured by Shimadzu Corporation
A compound 1 was metered, and Milli-Q water was added so that the compound 1 could be solubilized, thus obtaining an aqueous solution of the compound 1 (250 μM) so that the concentration of the compound 1 became 250 μM.
The aqueous solution of the compound 1 thus obtained (250 μM) was heated at 60° C., followed by measurement using the HPLC-PDA system.
The aqueous solution of the compound 1 obtained in Example 3 (250 μM) was heated under acid (0.1N HCl) conditions, followed by measurement of the decomposition products using the HPLC-PDA system. […] Addition of an acid decreased the production of D1 and promoted the production of D3.
The aqueous solution of the compound 1 obtained in Example 3 (250 μM) was heated under base (0.1N NaOH) conditions, followed by measurement of the decomposition products using the HPLC-PDA system. […] Addition of a base promoted the production of D1. Other peaks (0.11% by area) were observed.
The aqueous solution of the compound 1 obtained in Example 3 (250 μM) was stored under conditions of ordinary temperature and hydrogen peroxide (3 v/v %), followed by measurement of the decomposition products using the HPLC-PDA system.
The aqueous solution of the compound 1 obtained in Example 3 (250 μM) was irradiated with pseudo-sunlight (250 W/m^2, 2 hours), followed by measurement of the decomposition products using the HPLC-PDA system. […] Therefore, it was confirmed that the aqueous solution of the compound 1 was photostable.

The subject of data set [3] is phospholipase A2. As to conditions: known from Patent Document 1; cited from earlier work.
Data set [4] is described as follows: Inhibition of decomposition of compound 1-containing liquid composition with antioxidant added (60° C., 48 hours). To be noted: compound 1 250 μM, Tween 80 1.0 v/v %, antioxidant 250 μM, 60° C. for 48 hours (FIG. 6). In kind it is physicochemical. The procedure:
In this test, an additive (antioxidant) that traps reactive oxygen species (ROS) was added to investigate the usefulness in the aqueous solution of the compound 1 for inhibition of decomposition under thermal conditions. A compound 1, Tween 80 and an antioxidant was metered, and Milli-Q water was added so that the concentration of the compound 1 and Tween 80 became 250 μM and 1.0 v/v %, respectively. Subsequently, four antioxidants were added so that each of the concentration thereof became 250 μM to obtain a compound 1-containing liquid composition with an antioxidant added. The content of D1 after the composition was heated at 60° C. for 48 hours was evaluated.

Data set [5] in a line: Solution stability of compound 1-containing liquid composition with VC added (heating to 60° C.). The class given is physicochemical. To be noted: VC 250, 500 or 2,500 μM, compound 1 250 μM, Tween 80 1.0 v/v %. The procedure:
as §1
Effects of the amount of VC added on the solution stability of the compound 1 were investigated. Preparation was performed in the same manner as for the compound 1-containing liquid composition in Example 8 except that the concentration of VC was 250, 500 or 2,500 μM. The decomposition of the compound 1 and the production of D1 at the time of addition were evaluated (mean±standard error, n=3). After heating to 60° C., and the residual rate of the compound 1 and the content of D1 were evaluated over time, and the results are shown in FIG. 7. The residual rate (% by mass) of the compound 1 in the solution and the content (% by area) of D1 were calculated by the same calculation method as in Examples 3 to 8.

For data set [6] the following is noted: clinical use as additive; cited from earlier work.
[7] abbreviates: Heat: 60° C., 48 h, —: Undetected.
[8] abbreviates: Oxidation: 3.0% H2O2, room temperature, 48 h.

Entries after “also recorded” stand apart in the source; their conditions may differ. Where a name gives a salt, the structure may show the parent alone. Where only a bound is given, the exact number is not on record here.

As for `CCS(=O)(=O)Nc1ncc(C(F)(F)F)cc1NC(=O)C1CCCCC1` [Compound 1, N-(2-ethylsulfonylamino-5-trifluoromethyl-3-pyridyl)cyclohexanecarboxamide-monosodium salt-monohydrate], the “Concentration in plasma at 12 hours after administration” value in data set [1] is on record as “below the detection limit”. Also, the “Content of D3 after the forced decomposition test” value in data set [2] (Acid: 0.1N HCl, 60° C., 48 h) was 16.18 % by area; in data set [2] (Base: 0.1N NaOH, 60° C., 48 h) it was 0.50 % by area; in data set [2] (setting [7]) it was “below the detection limit”; in data set [2] (Oxidation: 3.0% H2O2, room temperature, 48 h, —: Undetected) it was “below the detection limit”. In data set [2] (Acid: 0.1N HCl, 60° C., 48 h), the “Other peaks (other than D1 and D3), maximum” value is given as not above 1.36 % by area. The “Residual rate of the compound 1 after the forced decomposition test” value in data set [2] (Acid: 0.1N HCl, 60° C., 48 h) amounted to 77.1 % by mass; in data set [2] (Base: 0.1N NaOH, 60° C., 48 h), 77.3 % by mass; in data set [2] (Heat: 250 μM aqueous solution, 60° C., 48 h), 88.7 % by mass; in data set [2] (Light: pseudo-sunlight 250 W/m^2, room temperature, 2 h), 97.4 % by mass; in data set [2] (setting [8]), 75.9 % by mass. In addition, the “Content of D1 after the forced decomposition test” value was “below the detection limit” in data set [2] (Acid: 0.1N HCl, 60° C., 48 h, —: Undetected); 17.62 % by area in data set [2] (Base: 0.1N NaOH, 60° C., 48 h); 8.08 % by area in data set [2] (setting [7]); 0.30 % by area in data set [2] (setting [8]). Besides, the “Other peaks (other than D1 and D3)” value is reported as 0.11 % by area in data set [2] (Base: 0.1N NaOH, 60° C., 48 h) and “No other peaks were detected” in data set [2] (Heat: 60° C., 48 h). The “Peaks other than D1 and D3, maximum” value in data set [2] (Oxidation: hydrogen peroxide 3 v/v %, ordinary temperature) is on record as not above 1.79 % by area. Besides, the “Photostability of the aqueous solution (decomposition products after irradiation)” value in data set [2] (pseudo-sunlight 250 W/m^2, 2 hours) is recorded as “No decomposition product was detected; also recorded: photostable”.
As to `CCS(=O)(=O)Nc1ncc(C(F)(F)F)cc1NC(=O)C1CCCCC1` [N-(2-ethylsulfonylamino-5-trifluoromethyl-3-pyridyl)cyclohexanecarboxamide], in data set [3], the “Inhibitory effect on phospholipase A2” value was “has an inhibitory effect on phospholipase A2”.
For `O=C1O[C@H]([C@@H](O)CO)C(O)=C1O` [VC, L-ascorbic acid], in data set [4], the “Inhibition of decomposition of compound 1 / production of D1 by added antioxidant” value is “remarkably inhibited the production of D1”. The “Residual rate of the compound 1 over time with VC added” value in data set [5] (60° C. (FIG. 7A)) is given as “increased depending on the concentration of VC added”. Moreover, the “Content of D1 over time with VC added” value in data set [5] (60° C. (FIG. 7B)) is reported as “decreased depending on the concentration of VC added”.
Take `N[C@@H](CS)C(=O)O` [cysteine, L-Cysteine]: the “Inhibition of decomposition of compound 1 / production of D1 by added antioxidant” value in data set [4] is given as “remarkably inhibited the production of D1”. The “Maximum dose during intravenous injection” value in data set [6] was 8 mg.
